Reference: US12486304B2, “Peptide ligand targeting carbonic anhydrase IX, peptide construct comprising same, and uses thereof” (priority 2022, dated 2025)
*1 amine or outer side, *2 acyl side, *3 side chain or, on linkers, in order; H or OH if unused. Where a SMILES comes first, the peptide text is derived from it. [ ]: non-standard residue; d: D form. X1 = NS(=O)(=O)c1ccc(-c2cn(CCCC[C@H](N[*:1])C(=O)[*:2])nn2)cc1

Conditions: human, 168 h
Procedure: A solution of the peptide structure diluted to a final concentration of 50 μm in 1 mL of 100% pure human serum (Cat #S1, Merk) or plasma (Cat #70039.1, [sequence] Technologies) [or 100% pure mouse serum (Sigma, Cat #S7273) or plasma (Rockland, Cat #D508-06-0050)] was divided into 100 μL. Then, while stored at 37° C., analysis was performed once a day for 7 days using the LC-MS (1260 Infinity II, Infinity Lab LC/MSD, Aglient) equipped with the Agilent Poroshell 120 EC-C18 column (4.6×50 mm, 2.7 μm). Before injecting the sample into the LC, 100 μL of ACN was added to the serum or plasma solution containing the peptides, then put into the centrifuge and spun to settle the precipitate, and only 10 μL of the supernatant was used for analysis.

## C[C@H](O)[C@H]1NC(=O)[C@@H](Cc2ccccc2)NC(=O)[C@@H](Cc2c[nH]cn2)NC(=O)[C@@H](Cc2ccccc2)NC(=O)[C@@H](CCCNC(=N)N)NC(=O)[C@@H](CCCNC(=N)N)NC(=O)[C@H](CCCCn2cc(-c3ccc(S(N)(=O)=O)cc3)nn2)NC(=O)[C@H](CCC(N)=O)NC(=O)CNC(=O)[C@@H](Cc2c[nH]cn2)NC1=O [No. 35] (cyclo(Q[X1][dR][dR][dF][dH][dF][dT][dH]G))
  Stability in plasma: not degraded at all and was completely maintained even after 6 days
